According to US6984394B2, “Plastically deformable implant” (Bausch & Lomb Incorporated, priority 1999, dated 2006):

Assays:
[1] = Surface tension of surface-active agent; assay type: physicochemical; conditions: in aqueous solution
From the text: According to the present invention, the term fluorine-containing gel is defined as a gel-like preparation which comprises a minimum of one fluorocarbon. In especially useful embodiments of the present invention, the fluorine-containing gel comprises essentially three components, i.e., a fluorocarbon, a fluorine-containing surface-active agent, and water. It is possible for different additives to be added to the fluorocarbon-containing and aqueous components. Certain compositions of surface-active agents, fluorocarbons, and water form gels which are able to completely recover their gel structure after they have been liquefied, for example, by exposure to mechanical pressure or heat. This property of the gels according to the present invention makes it possible for them to be used as a generic implant over a long period of time. If the implant material of such an implant that has been inserted into a bodily orifice were to liquefy, for example, as a result of short-term pressure, the gel structure, due to the reversibility described, would be able to recover when in a state of rest. Thus, the implant according to the present invention has a self-regulating restorative mechanism. This self-regulating restorative mechanism of a polyaphron gel is attributable to the stability of the aphrons that form the gel. After liquefaction, a gel can restore its structure only if its “building blocks,” the aphrons, were not completely destroyed. If a sufficient number of intact aphrons remain after liquefaction, a recovery is possible, and what comes as a surprise is the fact that the aphron structure is transferred to the homogenized regions of the surrounding liquid and that the gel structure is restored in the entire liquid. The stability of the aphrons depends on the intensity of the interaction between water, surface-active agent, and perfluorocarbon, which in turn is determined by the surface properties and the ability of the individual phases to spread on each other's surface. In addition, an important aspect is the intensity of the interactions of the molecules within the films that envelop the aphrons (water/surface-active agent; perfluorocarbon/surface-active agent). Thus, the self-regulating restorative mechanism is activated only if the surface properties of the surface-active agent/water and/or surface-active agent/perfluorocarbon film, on the one hand, and of the internal aphron phase, on the other hand, are properly coordinated, i.e., if the strength of the surface-active agent stabilizes the aphron structure. This can be implemented through the use of fluorine-containing surface-active agents of the general formula RF—Rpol, where RF stands for the linear or branched perfluoroalkyl groups with more than 5 carbon atoms and Rpol stands for a polar hydrocarbon residue which comprises a minimum of one functional group which is selected from CO—NH(R), CO—N(R)2, COO—, COOR, SO3; SO2N(R)2, CH2—O—R, PO2H, PO3H. The molecular weight is preferably >400 g/mol, the surface tension in aqueous solution is <30 mN/m and preferably <20 mN/m. The interfacial tension in aqueous solution with respect to the nonpolar component is <25 mN/m, preferably <10 mN/m, and the concentration is <3%, preferably <0.1%. With nonfluorinated surface-active agents, this can be achieved by means of a strong cohesive effect with an HLB value greater than 25 (HLB=hydrophilic lipophilic balance according to Griffin in J. Soc. Cosmet. Chem. 1 (1949), p. 311).

[2] = Interfacial tension with respect to the nonpolar component; assay type: physicochemical; conditions: surface-active agent, in aqueous solution
From the text: According to the present invention, the term fluorine-containing gel is defined as a gel-like preparation which comprises a minimum of one fluorocarbon. In especially useful embodiments of the present invention, the fluorine-containing gel comprises essentially three components, i.e., a fluorocarbon, a fluorine-containing surface-active agent, and water. It is possible for different additives to be added to the fluorocarbon-containing and aqueous components. Certain compositions of surface-active agents, fluorocarbons, and water form gels which are able to completely recover their gel structure after they have been liquefied, for example, by exposure to mechanical pressure or heat. This property of the gels according to the present invention makes it possible for them to be used as a generic implant over a long period of time. If the implant material of such an implant that has been inserted into a bodily orifice were to liquefy, for example, as a result of short-term pressure, the gel structure, due to the reversibility described, would be able to recover when in a state of rest. Thus, the implant according to the present invention has a self-regulating restorative mechanism. This self-regulating restorative mechanism of a polyaphron gel is attributable to the stability of the aphrons that form the gel. After liquefaction, a gel can restore its structure only if its “building blocks,” the aphrons, were not completely destroyed. If a sufficient number of intact aphrons remain after liquefaction, a recovery is possible, and what comes as a surprise is the fact that the aphron structure is transferred to the homogenized regions of the surrounding liquid and that the gel structure is restored in the entire liquid. The stability of the aphrons depends on the intensity of the interaction between water, surface-active agent, and perfluorocarbon, which in turn is determined by the surface properties and the ability of the individual phases to spread on each other's surface. […]

Compound | σO = surface tension [1] | σG = interfacial tension with respect to the nonpolar component [2] [mNm]
C[N+](C)(C)C.O=C([O-])C(F)(F)C(F)(F)C(F)(F)C(F)(F)C(F)(F)C(F)(F)C(F)(F)F [E 749, Tetramethyl ammonium salt of perfluorooctanoic acid] | σO < 20 mNm | 
CC[N+](CC)(CC)CC.O=S(=O)([O-])C(F)(F)C(F)(F)C(F)(F)C(F)(F)C(F)(F)C(F)(F)C(F)(F)C(F)(F)F [Example B248, Tetraethyl animonium salt of perfluorooctanesulfonic acid] | σO < 20 mNm | 
CN(C[C@H](O)[C@@H](O)[C@H](O)[C@H](O)CO)C(=O)C(F)(F)C(F)(F)C(F)(F)C(F)(F)C(F)(F)C(F)(F)C(F)(F)F [Example T14, Perfluorooctanoic acid N-methyl-D-glucamide] | σO < 20 mNm | 
O=C(N(CCO)CC(O)C(O)C(O)C(O)CO)C(F)(F)C(F)(F)C(F)(F)C(F)(F)C(F)(F)C(F)(F)C(F)(F)F [Example T16, Perfluorooctanoic acid N-(2-hydroxyethyl)-D-glucamide] | σO < 20 mNm | 
O=C(N(CCO)C[C@H](O)[C@@H](O)[C@H](O)[C@H](O)CO)C(F)(F)C(F)(F)C(F)(F)C(F)(F)C(F)(F)C(F)(F)C(F)(F)C(F)(F)C(F)(F)F [Example T21, Perfluorodecanoic acid N-(2-hydroxyethyl)-D-glucamide] | σO < 20 mNm | 
O=C(N(CCO)CCO)C(F)(F)C(F)(F)C(F)(F)C(F)(F)C(F)(F)C(F)(F)C(F)(F)F [HO31, Perfluorooctanoic acid diethanolamide] | σO < 20 mNm | 
Fluorinated amine oxide [Fluowet OX] | 22 mNm | 12
Perfluoroalkyl ethanol oxethylate [Fluowet OTL] | 19 mNm | 10
Perfluoroalkyl ethanol oxethylate [Fluowet OTN] | 18 mNm | 19
Perfluorooctanoic acid tetraethyl piperazinium salt [HO224] | σO = 16 mNm | 
